Non-standard residues stand in square brackets, D forms with d. Residues, ends and D or L forms follow the SMILES beside them.
How the values were obtained:
[1] = test system: patients with cirrhosis; details: administered through the hepatic artery, cited from earlier work
[2] = test system: patients with early cirrhosis; details: cited from earlier work
[3] = test system: adult subjects with a history of cirrhosis and portal hypertension; assay: Clinical study NCT03827200: portal pressure estimated by Hepatic Venous Pressure Gradient (HVPG); type: in vivo, human
Procedure: (§1) In the context of a clinical study (ClinicalTrials.gov Identifier: NCT03827200), ambrisentan was administered to 8 adult subjects with a history of cirrhosis and portal hypertension. […] A liquid formulation of ambrisentan was used, consisting of a solution of propylene glycol:ethanol (50:50 w/w) and ambrisentan at a concentration of 5 mg/mL. The solution was reconstituted prior to administration in water or propylene glycol. All subjects were treated for 14 days. Portal pressure was estimated in this study by means of the Hepatic Vein Pressure Gradient (HVPG), the current gold standard to evaluate the degree of portal hypertension in adults with cirrhosis (as described in Bosch, J., Abraldes, J. G., Berzigotti, A., & Garcia-Pagan, J. C. (2009). The clinical use of HVPG measurements in chronic liver disease. Nature Reviews Gastroenterology & Hepatology, 6(10), 573-582). HVPG was measured at baseline and prior to the first administration of ambrisentan. Post-baseline values for HVPG were obtained at 90 minutes following the administration of the first dose of ambrisentan. After 14 days of treatment, HVPG was determined at trough (prior to the last dose) and 90 minutes following the last dose of ambrisentan. Two dose groups were evaluated in this study. In the high dose group, 4 subjects were administered 50 μg ambrisentan on day 1 subcutaneously, followed by 100 μg of ambrisentan twice a day orally for 13 days, for a total daily dose of 200 μg. On day 14, subjects in the high dose group received a final dose of 50 μg ambrisentan subcutaneously. In the low dose group, 4 subjects were administered 10 μg ambrisentan on day 1 subcutaneously, followed by 14 μg of ambrisentan once a day orally for 13 days. On day 14, subjects in the low dose group received a final dose of 10 μg ambrisentan subcutaneously.
All subjects had portal hypertension as determined by HVPG at baseline (mean 19.7 mmHg, range 9-29 mmHg). […] An initial decrease in HVPG was apparent at 90 minutes post-administration in the low-dose group, and the reduction in HVPG was even larger at day 14 when compared to day 1 (Table 2).

[4] = Pharmacokinetic analysis of ambrisentan plasma concentrations in the clinical study; type: in vivo, human; details: high dose group
Procedure: as §1, with “In the high dose group, 4 subjects were administered 50 μg ambrisentan on day 1 subcutaneously, followed by 100 μg of ambrisentan twice a day orally for 13 days, for a total daily dose of 200 μg. On day 14, subjects in the high dose group received a final dose of 50 μg ambrisentan subcutaneously. In the low dose group, 4 subjects were administered 10 μg ambrisentan on day 1 subcutaneously, followed by 14 μg of ambrisentan once a day orally for 13 days. On day 14, subjects in the low dose group received a final dose of 10 μg ambrisentan subcutaneously.” left out

[5] = test system: patient with portopulmonary hypertension; details: one case of portopulmonary hypertension; cited from earlier work
[6] = test system: patients with portopulmonary hypertension; details: cited from earlier work

CC(C)C[C@@H]1NC(=O)[C@@H](C(C)C)NC(=O)[C@@H]2CCCN2C(=O)[C@@H](CC(=O)O)NC(=O)[C@@H](Cc2c[nH]c3ccccc23)NC1=O [BQ-123] (cyclo(L[dW][dD]P[dV]))
Reduction of portal pressure as determined by HVPG ([1]; acute): 18% | Hepatic artery blood flow [1]: significant increase | Acute reduction of portal pressure as assessed by HVPG [2]: did not show any acute reduction on portal pressure

CCCC[C@@H](NC(=O)[C@@H](Cc1cn(C(=O)OC)c2ccccc12)NC(=O)[C@H](CC(C)(C)C)NC(=O)N1[C@H](C)CCC[C@@H]1C)C(=O)O [BQ-788]
Acute reduction of portal pressure as assessed by HVPG [2]: did not show any acute reduction on portal pressure

COC(c1ccccc1)(c1ccccc1)[C@H](Oc1nc(C)cc(C)n1)C(=O)O [ambrisentan]
Change in HVPG from baseline, percent change, mean ([3]; dose group 10/14 μg, N=4, Day 1, 90 m after first dose): −6.4% | Change in HVPG from baseline, percent change, mean ([3]; dose group 10/14 μg, N=4, Day 14, 90 m after last dose): −14.1% | Change in HVPG from baseline, percent change, mean ([3]; dose group 10/14 μg, N=4, Day 14, trough (0 H)): −9.2% | Change in HVPG from baseline, percent change, mean ([3]; dose group 50/200 μg, N=4, Day 1, 90 m after first dose): 4.8% | Change in HVPG from baseline, percent change, mean ([3]; dose group 50/200 μg, N=4, Day 14, 90 m after last dose): 11.7% | Change in HVPG from baseline, percent change, mean ([3]; dose group 50/200 μg, N=4, Day 14, trough (0 H)): 9.2% | Steady-state trough ambrisentan plasma concentration ([4]; 100 μg twice daily orally for 13 days): about 10 ng/mL | concentration at 2 h ([4]; human, plasma, subcutaneous, 50 μg at day 14, 2 hours post-administration): 18 ng/mL

COc1ccccc1Oc1c(NS(=O)(=O)c2ccc(C(C)(C)C)cc2)nc(-c2ncccn2)nc1OCCO [bosentan]
Portal pressure as measured by HVPG [5]: decrease | Pulmonary pressure [5]: decrease

CCCNS(=O)(=O)Nc1ncnc(OCCOc2ncc(Br)cn2)c1-c1ccc(Br)cc1 [macitentan]
6-minute walking distance [6]: no effect | Portal pressure as determined by HVPG [6]: not showing a significant difference
